Assay results: patent US20260083676A1, “SPRAY-DRIED AMORPHOUS SOLID DISPERSIONS AND METHOD FOR PREPARATION” (Merck Patent GMbH, priority 2022, published 2026)

Key:
[1] = Dissolution measurement of PROTAC ARV-110 ASD in phosphate buffer pH 6.8; assay type: physicochemical; details: phosphate buffer pH 6.8, room temperature, 0.2 mg/ml, 120 minutes; FIG. 23
Protocol: For PROTAC ARV-110, the dissolution of the samples was determined at room temperature in phosphate buffer pH 6.8 as dissolution medium. 5 mg of bulk drug or spray dried powder samples equivalent to 5 mg of drug were weighted and placed into a 100 ml of Erlenmeyer flask, subsequently a magnetic stirring bar was added to the Erlenmeyer flask and stirred at 200 rpm, then 25 ml of dissolution medium was added. (concentration: 0.2 mg/ml)
At predetermined time points (5, 10, 20, 40, 60, 90, 120 min), 500 μl of sample were withdrawn from the dissolution vessels and immediately replaced by 500 μl of fresh dissolution medium. The dissolution samples were then filtered through a 0.45 μm filter. The sample is diluted with Eluent B (1:1). Finally, the samples were analyzed towards drug content using HPLC.
A C8-Column (Waters XBridge Column C8, 4.6×50 mm, 3.5 μm) column was used for the quantification.
The eluents are composed as follows: Eluent A: 0.1% formic acid in water; Eluent B: 0.1% formic acid in acetonitrile. Method: linear gradient of 10% to 90% Eluent B in 2 minutes at 1.7 ml/min flow rate.

[2] = X-ray powder diffraction and DSC of spray-dried products; assay type: physicochemical; details: raw material and spray dried dispersion with PVA 3-82; FIG. 24 to 26
Protocol: (§1) Diffractograms of powders were measured using an Miniflex 600 X-ray diffractometer (Rigaku, Japan) with CuKα radiation (λ=1.54 A). Samples were scanned in reflectance mode from 3° to 50° 2θ (deg), with a scan speed of 10° 2θ (deg)/min and a step size of 0.020° 2θ (deg) and results are shown in FIG. 2. The acceleration voltage and current are 45 kV and 15 mA.
The DSC thermograms of the samples as shown in FIG. 3 were collected using a DSC 3 (METTLER, U.S.) under a nitrogen gas flow of 50 ml/min. A total of 2-5 mg sample powder was filled into an aluminum Tzero pan (40 μL) and sealed with an aluminum Tzero lid. The sample was analyzed at a heating rate of 5° C./min from −25° C. to 230° C.
Spray-drying of ASDs has been prepared as described in Example 2, XRD measurements have been performed as described in Example 1.
as §1, with “(deg).” for “(deg) and results are shown in FIG. 2.”

SMILES: N#Cc1ccc(O[C@H]2CC[C@H](NC(=O)c3ccc(N4CCC(CN5CCN(c6cc7c(cc6F)C(=O)N(C6CCC(=O)NC6=O)C7=O)CC5)CC4)nn3)CC2)cc1Cl (some centres unmarked) [ARV-110]
- dissolution [1]: neither the raw PROTAC 1, PROTAC 2 nor ARV110 show any measurable dissolution
- solid state (XRD) [2]: crystalline
